Reference: patent US20230017786A1, “DEXTR[…] A DISEASE-MODIFYING TREATMENT FOR NEUROPSYCHIATRIC DISORDERS AND DISEASES” (priority 2020, published 2023)
Counter-ions that a name gives are not always drawn.

What was measured:
[1] = system: diheteromeric human recombinant NMDAR containing GluN1 plus GluN2A, GluN2B, GluN2C or GluN2D; assay: FLIPR calcium assay, statements for all four NMDAR subtypes together; type: cell-based; conditions: 6 test item concentrations
Text: An operational equation for allosteric modulators (Leach K, Sexton P M and Christopoulos A, Allosteric GPCR modulators: taking advantage of permissive receptor pharmacology, Trends Pharmacol. Sci. 28: 382-389, 2007; Kenakin T P, Overview of receptor interaction of agonists and antagonists, Curr. Protoc. Pharmacol. Chapter 4: Unit 4.1, 2008, Kenakin T P, Biased signalling and allosteric machines: new vistas and challenges for drug discovery, Br. J. Pharmacol. 165: 1659-1669, 2012) was created in Prism 8 (GraphPad) software to estimate KB and a parameters for every test item, with the assumption that, as a pore blocker, every test item would be able to produce a compete blockade of agonist response, at sufficiently high concentration: […]

[2] = molecular target: T1, human NMDA receptor GluN1-GluN2C (Homo sapiens, UniProt Q05586+Q14957); assay: FLIPR calcium assay, test item effect on L-glutamate CRC, GluN1-GluN2C-CHO; type: cell-based
T1 construct: expressed in transfected cells; host or cells: CHO
T1 sequence (Q14957 20-1233, other chains not shown): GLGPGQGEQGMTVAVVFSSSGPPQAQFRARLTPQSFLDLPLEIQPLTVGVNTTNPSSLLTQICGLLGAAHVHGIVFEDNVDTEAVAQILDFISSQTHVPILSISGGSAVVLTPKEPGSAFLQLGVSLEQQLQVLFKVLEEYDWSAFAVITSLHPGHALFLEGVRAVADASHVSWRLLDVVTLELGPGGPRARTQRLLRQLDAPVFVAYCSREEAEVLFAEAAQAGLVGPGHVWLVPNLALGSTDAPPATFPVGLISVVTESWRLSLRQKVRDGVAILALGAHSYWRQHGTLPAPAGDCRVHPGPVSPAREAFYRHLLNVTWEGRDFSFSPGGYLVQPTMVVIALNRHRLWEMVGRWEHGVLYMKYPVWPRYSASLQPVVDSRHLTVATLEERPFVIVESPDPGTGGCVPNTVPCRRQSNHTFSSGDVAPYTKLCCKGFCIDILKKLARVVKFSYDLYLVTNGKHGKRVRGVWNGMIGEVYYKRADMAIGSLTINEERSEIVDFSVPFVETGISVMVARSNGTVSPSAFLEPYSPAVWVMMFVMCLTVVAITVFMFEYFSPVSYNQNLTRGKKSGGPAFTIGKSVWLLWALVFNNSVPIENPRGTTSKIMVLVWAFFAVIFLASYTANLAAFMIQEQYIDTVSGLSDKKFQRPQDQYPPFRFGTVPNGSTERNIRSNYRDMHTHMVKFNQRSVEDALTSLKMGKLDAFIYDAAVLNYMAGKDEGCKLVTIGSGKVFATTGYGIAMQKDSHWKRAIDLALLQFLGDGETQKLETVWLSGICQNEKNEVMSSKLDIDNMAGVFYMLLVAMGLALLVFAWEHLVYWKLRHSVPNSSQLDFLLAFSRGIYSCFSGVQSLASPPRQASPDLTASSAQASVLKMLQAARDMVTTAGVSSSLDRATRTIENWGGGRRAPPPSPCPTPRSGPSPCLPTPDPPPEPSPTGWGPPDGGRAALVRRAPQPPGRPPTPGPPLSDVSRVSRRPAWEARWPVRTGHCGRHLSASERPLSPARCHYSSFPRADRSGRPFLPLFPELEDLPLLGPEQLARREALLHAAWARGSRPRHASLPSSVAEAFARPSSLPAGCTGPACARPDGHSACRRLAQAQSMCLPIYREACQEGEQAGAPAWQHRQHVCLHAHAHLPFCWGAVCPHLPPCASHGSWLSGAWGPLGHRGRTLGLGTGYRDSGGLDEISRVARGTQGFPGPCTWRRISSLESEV
Method: (§1) FLIPR determination of intracellular calcium level was used as a read-out for NMDAR activation.
(§2) 400× compound plate was stored at −20° C. until FLIPR experimental day.
(§3) 4× compound plate was generated from 400× compound plate by addition of up to 30 μl/well of compound buffer on FLIPR experimental day.
(§4) A FLIPR system was used to monitor intracellular calcium level in NMDAR cell lines, pre-loaded for 1 hour with Fluo-4, and then washed with assay buffer.
(§5) Y=Bottom+(Top−Bottom)/(1+10^((LogEC50−Log[A])*HillSlope))

[3] = molecular target: T2, human NMDA receptor GluN1-GluN2D (Homo sapiens, UniProt O15399+Q05586); assay: FLIPR calcium assay, test item effect on L-glutamate CRC, GluN1-GluN2D-CHO; type: cell-based
T2 construct: expressed in transfected cells; host or cells: CHO
Method: as §1, §2, §3, §4, §5

[4] = molecular target: T3, human NMDA receptor GluN1-GluN2B (Homo sapiens, UniProt Q05586+Q13224); assay: cell-based; type: cell-based
T3 construct: expressed in transfected cells; host or cells: CHO
T3 sequence (Q13224 27-1484, other chains not shown): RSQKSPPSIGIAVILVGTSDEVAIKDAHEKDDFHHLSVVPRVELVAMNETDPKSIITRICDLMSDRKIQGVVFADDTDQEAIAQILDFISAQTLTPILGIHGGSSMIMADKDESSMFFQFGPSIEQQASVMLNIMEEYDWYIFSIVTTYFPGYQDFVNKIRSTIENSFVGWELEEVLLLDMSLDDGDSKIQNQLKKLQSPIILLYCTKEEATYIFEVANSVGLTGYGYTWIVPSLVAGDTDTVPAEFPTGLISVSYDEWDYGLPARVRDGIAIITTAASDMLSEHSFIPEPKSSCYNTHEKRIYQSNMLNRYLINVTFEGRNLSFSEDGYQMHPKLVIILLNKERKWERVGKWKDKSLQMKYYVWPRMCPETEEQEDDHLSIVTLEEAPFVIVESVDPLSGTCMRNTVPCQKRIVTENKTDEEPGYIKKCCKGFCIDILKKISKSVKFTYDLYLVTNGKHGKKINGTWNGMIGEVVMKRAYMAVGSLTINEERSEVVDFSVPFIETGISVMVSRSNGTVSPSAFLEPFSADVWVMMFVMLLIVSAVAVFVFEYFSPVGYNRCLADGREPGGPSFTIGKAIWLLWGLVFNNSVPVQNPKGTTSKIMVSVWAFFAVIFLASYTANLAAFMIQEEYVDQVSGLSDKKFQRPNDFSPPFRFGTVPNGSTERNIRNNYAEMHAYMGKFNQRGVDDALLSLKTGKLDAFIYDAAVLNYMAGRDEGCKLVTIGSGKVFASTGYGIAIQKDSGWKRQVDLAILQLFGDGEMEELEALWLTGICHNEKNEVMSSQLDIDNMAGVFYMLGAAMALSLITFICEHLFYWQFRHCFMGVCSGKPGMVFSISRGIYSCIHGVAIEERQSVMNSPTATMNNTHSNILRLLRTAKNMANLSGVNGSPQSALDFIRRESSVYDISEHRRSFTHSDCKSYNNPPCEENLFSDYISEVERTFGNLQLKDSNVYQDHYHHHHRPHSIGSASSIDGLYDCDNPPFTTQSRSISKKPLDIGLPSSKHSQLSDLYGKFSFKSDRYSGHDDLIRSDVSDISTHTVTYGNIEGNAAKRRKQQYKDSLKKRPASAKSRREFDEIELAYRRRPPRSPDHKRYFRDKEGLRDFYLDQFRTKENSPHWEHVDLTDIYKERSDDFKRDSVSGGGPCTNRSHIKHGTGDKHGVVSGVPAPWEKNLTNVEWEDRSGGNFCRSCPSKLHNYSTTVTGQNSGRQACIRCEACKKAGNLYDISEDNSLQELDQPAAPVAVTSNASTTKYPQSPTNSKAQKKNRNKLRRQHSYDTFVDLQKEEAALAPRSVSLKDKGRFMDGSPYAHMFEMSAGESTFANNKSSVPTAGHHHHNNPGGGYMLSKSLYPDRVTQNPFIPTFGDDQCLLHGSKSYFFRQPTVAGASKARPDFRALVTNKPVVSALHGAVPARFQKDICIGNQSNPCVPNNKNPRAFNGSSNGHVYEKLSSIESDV
Method: as §1, §2, §3, §4, §5

rat brain = conditions: 75 mg/kg; Hashimoto et al., 1996; cited from earlier work
[5] = molecular target: T4, human NMDA receptor GluN1-GluN2A (Homo sapiens, UniProt Q05586+Q12879); assay: FLIPR calcium assay, test item effect on L-glutamate CRC, GluN1-GluN2A-CHO; type: cell-based
T4 construct: expressed in transfected cells; host or cells: CHO
T4 sequence (Q12879 23-1464, other chains not shown): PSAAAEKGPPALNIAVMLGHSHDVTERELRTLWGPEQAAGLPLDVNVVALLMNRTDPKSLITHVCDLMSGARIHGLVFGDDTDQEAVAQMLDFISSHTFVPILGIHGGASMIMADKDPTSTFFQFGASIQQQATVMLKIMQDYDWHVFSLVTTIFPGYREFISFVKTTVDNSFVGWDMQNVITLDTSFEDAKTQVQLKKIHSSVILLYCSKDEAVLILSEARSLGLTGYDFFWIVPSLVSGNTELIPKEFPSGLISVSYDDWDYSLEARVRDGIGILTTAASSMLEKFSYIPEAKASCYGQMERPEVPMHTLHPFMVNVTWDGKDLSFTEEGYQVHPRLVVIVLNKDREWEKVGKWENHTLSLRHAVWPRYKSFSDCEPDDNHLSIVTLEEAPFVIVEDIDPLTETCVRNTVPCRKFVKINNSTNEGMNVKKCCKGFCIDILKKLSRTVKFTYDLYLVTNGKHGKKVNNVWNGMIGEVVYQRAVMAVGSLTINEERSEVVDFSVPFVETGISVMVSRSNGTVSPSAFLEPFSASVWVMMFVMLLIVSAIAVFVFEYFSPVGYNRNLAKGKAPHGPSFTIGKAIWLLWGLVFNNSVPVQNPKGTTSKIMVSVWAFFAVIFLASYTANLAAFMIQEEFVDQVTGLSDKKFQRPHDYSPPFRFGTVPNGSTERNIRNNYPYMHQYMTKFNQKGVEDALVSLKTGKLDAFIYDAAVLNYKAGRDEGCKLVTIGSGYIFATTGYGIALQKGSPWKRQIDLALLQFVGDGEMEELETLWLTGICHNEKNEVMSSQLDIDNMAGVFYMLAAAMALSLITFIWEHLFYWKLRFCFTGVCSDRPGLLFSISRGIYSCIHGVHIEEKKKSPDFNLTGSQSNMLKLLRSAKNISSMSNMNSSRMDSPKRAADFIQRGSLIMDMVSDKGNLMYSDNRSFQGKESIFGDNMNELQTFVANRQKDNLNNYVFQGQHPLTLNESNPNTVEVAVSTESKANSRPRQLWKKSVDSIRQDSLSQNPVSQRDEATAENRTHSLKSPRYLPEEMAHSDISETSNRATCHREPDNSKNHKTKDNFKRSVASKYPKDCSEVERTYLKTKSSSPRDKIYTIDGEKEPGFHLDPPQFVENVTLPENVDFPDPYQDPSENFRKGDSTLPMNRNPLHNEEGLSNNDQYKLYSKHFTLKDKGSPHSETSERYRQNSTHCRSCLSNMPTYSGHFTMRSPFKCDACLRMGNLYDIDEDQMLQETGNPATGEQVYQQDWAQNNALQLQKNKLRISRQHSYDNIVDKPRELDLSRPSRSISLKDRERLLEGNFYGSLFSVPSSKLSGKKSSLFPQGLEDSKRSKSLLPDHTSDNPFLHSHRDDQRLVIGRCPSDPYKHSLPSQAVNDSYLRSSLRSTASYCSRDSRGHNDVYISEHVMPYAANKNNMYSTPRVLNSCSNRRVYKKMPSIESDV
Method: as §1, §2, §3, §4, §5

[6] = highest affinity for a NMDAR subtype = 100%
[7] = operational analysis for allosteric modulators
[8] = operational analysis for allosteric modulators, read-out: KB (M), estimated test item equilibrium dissociation constant

COc1ccc2c(c1)[C@]13CCCC[C@@H]1[C@H](C2)N(C)CC3 [Dextromethorphan, dextromethorphan hydrobromide monohydrate]
profile on L-glutamate CRC [1]: insurmountable profile | % affinity ratio [2, 6]: 100% | α, estimated cooperativity term [2, 7]: 0.24 | Kb [2, 8]: 1.2e-06 M | L-glutamate CRC HillSlope ([2]; with test item 49 nM): 1.3 | L-glutamate CRC LogEC50 ([2]; with test item 49 nM): −7.0 | L-glutamate CRC HillSlope ([2]; with test item 195 nM): 1.4 | L-glutamate CRC LogEC50 ([2]; with test item 195 nM): −6.8 | L-glutamate CRC HillSlope ([2]; with test item 781 nM): 1.6 | L-glutamate CRC LogEC50 ([2]; with test item 781 nM): −6.8 | L-glutamate CRC HillSlope ([2]; with test item 3.1 μM): 1.6 | L-glutamate CRC LogEC50 ([2]; with test item 3.1 μM): −6.7 | L-glutamate CRC HillSlope ([2]; with test item 12.5 μM): 1.5 | L-glutamate CRC LogEC50 ([2]; with test item 12.5 μM): −6.7 | L-glutamate CRC HillSlope ([2]; with test item 50 μM): 3.0 | L-glutamate CRC LogEC50 ([2]; with test item 50 μM): −6.8 | Kb ([3]; KB Table, absence of extracellular Mg2+, read-out: KB): 6.7 µM | % affinity ratio [3, 6]: 18% | α, estimated cooperativity term [3, 7]: 0.34 | L-glutamate CRC HillSlope ([3]; with test item 49 nM): 1.7 | L-glutamate CRC LogEC50 ([3]; with test item 49 nM): −7.5 | L-glutamate CRC HillSlope ([3]; with test item 195 nM): 1.4 | L-glutamate CRC LogEC50 ([3]; with test item 195 nM): −7.5 | L-glutamate CRC HillSlope ([3]; with test item 781 nM): 1.7 | L-glutamate CRC LogEC50 ([3]; with test item 781 nM): −7.4 | L-glutamate CRC HillSlope ([3]; with test item 3.1 μM): 1.9 | L-glutamate CRC LogEC50 ([3]; with test item 3.1 μM): −7.3 | L-glutamate CRC HillSlope ([3]; with test item 12.5 μM): 1.7 | L-glutamate CRC LogEC50 ([3]; with test item 12.5 μM): −7.1 | L-glutamate CRC HillSlope ([3]; with test item 50 μM): 1.9 | L-glutamate CRC LogEC50 ([3]; with test item 50 μM): −6.8 | % affinity ratio [4, 6]: 63% | α, estimated cooperativity term [4, 7]: 0.13 | Kb [4, 8]: 1.9e-06 M | L-glutamate CRC HillSlope ([4]; with test item 49 nM): 1.2 | L-glutamate CRC LogEC50 ([4]; with test item 49 nM): −6.7 | L-glutamate CRC HillSlope ([4]; with test item 195 nM): 1.1 | L-glutamate CRC LogEC50 ([4]; with test item 195 nM): −6.7 | L-glutamate CRC HillSlope ([4]; with test item 781 nM): 1.3 | L-glutamate CRC LogEC50 ([4]; with test item 781 nM): −6.6 | L-glutamate CRC HillSlope ([4]; with test item 3.1 μM): 1.3 | L-glutamate CRC LogEC50 ([4]; with test item 3.1 μM): −6.7 | L-glutamate CRC HillSlope ([4]; with test item 12.5 μM): 1.2 | L-glutamate CRC LogEC50 ([4]; with test item 12.5 μM): −6.7 | L-glutamate CRC HillSlope ([4]; with test item 50 μM): 0.83 | L-glutamate CRC LogEC50 ([4]; with test item 50 μM): −6.2 | vacuolization in rats' brains (rat brain): cause vacuolization | % affinity ratio [5, 6]: 13% | α, estimated cooperativity term [5, 7]: 0.25 | Kb [5, 8]: 9.6e-06 M | L-glutamate CRC HillSlope ([5]; with test item 49 nM): 1.0 | L-glutamate CRC LogEC50 ([5]; with test item 49 nM): −6.6 | L-glutamate CRC HillSlope ([5]; with test item 195 nM): 1.2 | L-glutamate CRC LogEC50 ([5]; with test item 195 nM): −6.6 | L-glutamate CRC HillSlope ([5]; with test item 781 nM): 1.3 | L-glutamate CRC LogEC50 ([5]; with test item 781 nM): −6.4 | L-glutamate CRC HillSlope ([5]; with test item 3.1 μM): 1.3 | L-glutamate CRC LogEC50 ([5]; with test item 3.1 μM): −6.5 | L-glutamate CRC HillSlope ([5]; with test item 12.5 μM): 1.1 | L-glutamate CRC LogEC50 ([5]; with test item 12.5 μM): −6.4 | L-glutamate CRC HillSlope ([5]; with test item 50 μM): 1.3 | L-glutamate CRC LogEC50 ([5]; with test item 50 μM): −6.2
